Among the test systems are HS 578T breast; SK-MEL-28 melanoma; T-47D breast; HCT-15 colon; SN12C renal; HCC-2998 colon; SF-268 CNS; MOLT-4 leukemia; KM12 colon; OVCAR-3 ovarian.
Holding throughout (assay): inhibition of tumour cell growth, NCI panel, 48 h

Values joined by “and” are separate entries in the source; they are usually repeats but may differ in a detail not shown here. Equal entries are not always repeated.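 Growth conditions: 96-well plates. Treatment: test compound, 48 hours, 5 concentrations. Analysis: linear interpolation between bracketing concentrations; unreached endpoints set to highest concentration. GI50 marks 50% less growth. TGI marks complete inhibition of growth.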 Bounds are passed on as bounds.

In the case of `COc1cc(C2S/C(=C/c3ccccc3)C(=O)N2c2cccc([N+](=O)[O-])c2)cc(OC)c1OC` (stereo unspecified), the TGI is over 100 µM in the assay on HS 578T breast; over 100 µM with SK-MEL-28 melanoma; 21.4 µM in the assay on T-47D breast; over 100 µM with HCT-15 colon; over 100 µM with SN12C renal; over 100 µM in the assay on HCC-2998 colon. The TGI in the assay with SF-268 CNS, in the assay on MOLT-4 leukemia and in the assay on KM12 colon was over 100 µM throughout.

Consider `COc1cc(-c2nc3nc(N4CCN(C)CC4)ccc3[nH]2)c(OC)c2[nH]c(COC(C)=O)nc12`, for which the TGI in the assay with HS 578T breast was over 100 µM; in the assay with SK-MEL-28 melanoma it was over 100 µM; in the assay with T-47D breast, over 100 µM; with HCT-15 colon it was over 100 µM; with SN12C renal, 98.8 µM; in the assay on HCC-2998 colon it was 30.6 µM. The values for the TGI with SF-268 CNS and in the assay on KM12 colon were over 100 µM and 83.3 µM, respectively.

On to `COC(=O)n1c(CBr)c(Br)c2ccccc21`, for which the TGI was 50.9 µM in the assay on OVCAR-3 ovarian; over 100 µM with SK-MEL-28 melanoma; over 100 µM in the assay with HCT-15 colon; over 100 µM in the assay on HCC-2998 colon; 75.8 µM in the assay on SF-268 CNS; 76.3 µM with MOLT-4 leukemia. The same molecule came in with a TGI with KM12 colon of over 100 µM.

`Cn1ccc(C(=O)NCCCCCNC(=O)c2ccn(C)c(=O)c2O)c(O)c1=O`: the TGI in the assay on HS 578T breast, in the assay on SK-MEL-28 melanoma, in the assay with T-47D breast, in the assay on HCT-15 colon, with SN12C renal and with HCC-2998 colon was over 100 µM throughout. The TGI with SF-268 CNS and in the assay on KM12 colon was over 100 µM in each case.

Take `O=C(/C=C/c1ccccc1O)/C=C/c1ccccc1O`: the TGI in the assay with OVCAR-3 ovarian was 1.26 µM; with HS 578T breast, 12.3 µM; in the assay with SK-MEL-28 melanoma, 3.67 µM; in the assay with HCT-15 colon it was 5.1 µM; with SN12C renal, 3.65 µM; with SF-268 CNS, 0.905 µM. Moreover, the values for the TGI in the assay with MOLT-4 leukemia and in the assay on KM12 colon were over 100 µM and 3.3 µM, respectively.

`CN(C)CC(NC(NCS)C(=O)NCCNc1ccc(NCCNC(=O)C(NCS)NC(CN(C)C)OCCl)c2c1C(=O)c1c(O)ccc(O)c1C2=O)OCCl` (stereo unspecified): the GI50 was 1.36 µM in the assay with OVCAR-3 ovarian; 2.18 µM in the assay with SK-MEL-28 melanoma; 0.0892 µM in the assay on HCT-15 colon; under 0.001 µM in the assay with SN12C renal; 0.211 µM in the assay on KM12 colon. The TGI was 3.05 µM in the assay with HS 578T breast; 1.62 µM in the assay on T-47D breast; 1.73 µM and 1.74 µM in the assay on HCT-15 colon; 0.477 µM in the assay with SN12C renal; 1.86 µM with HCC-2998 colon; 1.53 µM and 1.84 µM in the assay on KM12 colon.

For `CN1CC2CC(C1)c1cccc(=O)n1C2` (stereo unspecified), the TGI in the assay with OVCAR-3 ovarian, with HS 578T breast, in the assay on T-47D breast, in the assay with HCT-15 colon, in the assay with SN12C renal and in the assay on HCC-2998 colon was over 100 µM each time. Also, the TGI in the assay with SF-268 CNS and in the assay on KM12 colon was over 100 µM in each case.

As to `O=C(NN1C(=O)C=CC1=O)c1ccccc1Nc1ccccc1C(=O)NN1C(=O)C=CC1=O`, the TGI in the assay on OVCAR-3 ovarian, in the assay with SK-MEL-28 melanoma, in the assay on T-47D breast, in the assay on HCT-15 colon, in the assay on SN12C renal and with HCC-2998 colon was over 100 µM in each case. Besides, the TGI in the assay on SF-268 CNS, in the assay with MOLT-4 leukemia and with KM12 colon was over 100 µM in each case.

For `COc1ccc2c(c1)CC[C@@H]1[C@@H]2CC[C@]2(C)C(=O)/C(=C/c3cc(OC)c(OC)c(OC)c3)C[C@@H]12`, the TGI in the assay with OVCAR-3 ovarian was 33.7 µM; with T-47D breast it was over 100 µM; with HCT-15 colon it was over 100 µM; in the assay on HCC-2998 colon, over 100 µM; in the assay with MOLT-4 leukemia it was over 100 µM; in the assay on KM12 colon it was 82.9 µM.

In the case of `C#CCOC(=O)C(N)CCCN=C(N)N` (stereo unspecified), the TGI with HS 578T breast, in the assay with SK-MEL-28 melanoma, in the assay with T-47D breast, in the assay with HCT-15 colon, in the assay on SN12C renal and in the assay on HCC-2998 colon was over 100 µM in each case. Further, the TGI in the assay on SF-268 CNS, in the assay with MOLT-4 leukemia and in the assay on KM12 colon was over 100 µM each time.

As to `COc1ccc(/C=C2\CN(C)Cc3c2[nH]c(=O)c(C#N)c3-c2ccc(OC)cc2)cc1`, the TGI with OVCAR-3 ovarian, in the assay with HS 578T breast, in the assay with SK-MEL-28 melanoma, with T-47D breast, in the assay on HCT-15 colon and in the assay on SN12C renal was over 100 µM throughout. In addition, the TGI with SF-268 CNS, in the assay with MOLT-4 leukemia and in the assay with KM12 colon was over 100 µM each time.

Take `CC(C)CCC/C(CBr)=C(\Cl)CCl`: the TGI with OVCAR-3 ovarian came out at 6.73 µM; in the assay with HS 578T breast, 7.46 µM; in the assay with SK-MEL-28 melanoma it was 5.19 µM; in the assay with HCT-15 colon, 11.4 µM; in the assay with SN12C renal, 8.85 µM; with HCC-2998 colon, 21 µM. Also, the TGI with SF-268 CNS was 9.89 µM; in the assay on MOLT-4 leukemia, 2.88 µM; with KM12 colon, 5.51 µM.

Regarding `COc1ccc2c(c1)-c1oc3ccccc3c(=O)c1CO2`, the TGI with OVCAR-3 ovarian was over 100 µM; with T-47D breast, 68.5 µM; in the assay with HCT-15 colon, over 100 µM; in the assay with SN12C renal, 77.9 µM; in the assay with HCC-2998 colon, over 100 µM; with SF-268 CNS, over 100 µM. Besides, the TGI with MOLT-4 leukemia and with KM12 colon was over 100 µM each time.

On to `CC(C)C1=CC23CCC4C(C)(C(=O)O)CCCC4(C)C2CC1C(C(=O)O)C3C(=O)O` (stereo unspecified), for which the TGI in the assay with OVCAR-3 ovarian, in the assay with HS 578T breast, in the assay on SK-MEL-28 melanoma, with T-47D breast, with HCT-15 colon and in the assay with SN12C renal was over 100 µM each time. Moreover, the TGI in the assay with SF-268 CNS, in the assay with MOLT-4 leukemia and in the assay on KM12 colon was over 100 µM each time.

Consider `N#Cc1c(N2CCN(c3ccc([N+](=O)[O-])cc3)CC2)[n+](=O)c2ccc(Cl)cc2n1[O-]`, for which the TGI with HS 578T breast is over 100 µM; with SK-MEL-28 melanoma, over 39.2 µM; in the assay with HCT-15 colon, 2.17 µM; in the assay with SN12C renal, 3.05 µM; in the assay with HCC-2998 colon, 4.4 µM; in the assay with SF-268 CNS, 10.9 µM. Further, the TGI with MOLT-4 leukemia turned out to be 8.52 µM; with KM12 colon, 13.3 µM.

Values taken from PubChem BioAssay (NCI).
